PMC10906223 (JCI Insight, 2024)
“And” between values parts separate entries of the source, which are not always exact repeats. Equal values may be shown once.

Tests used:
diabetic NOD mice = assay: Intraperitoneal glucose tolerance test in NOD mice; format: in vivo, mouse; design: Blood glucose, IPGTT (Figure 6D): unit not given here; settings: for Blood glucose, IPGTT (Figure 6D): Diabetic
Experimental: Following 5 hours of fasting, NOD mice were injected with 20% sterile glucose solution (i.p. […] body weight; at the volume of 10 times of the body weight). Blood glucose levels were measured before injection by tail nick. Following injection, blood glucose levels were measured at time points of 15, 30, 45, 60, 90, 120, and 180 minutes by using the glucometer. […] Glucose tolerance test was done at 3 time points (8, 14, and 24 hours) after the final WCDD301 administration. Data were plotted using GraphPad Prism software version 4.

[1] = system: dispersed mouse islet cells; assay: EphA4 shedding into culture medium (EphA4 ELISA); format: cell-based; settings: Supplemental Figure 4D
Experimental: (§1) Pancreata of nondiabetic C57BL/6J mice were digested using collagenase P (Roche Diagnostics, catalog 11213873001), and islets were manually picked up using a stereomicroscope (ZEISS Stemi 305). […] Isolated mouse islets or provided human islets were dispersed as described ([28]). Briefly, 100–120 islets were washed 2 times using modified HBSS, then dispersed in 600 μL Accutase (Innovative Cell Technologies, catalog AT-104) by gently pipetting up and down for 7 minutes at 37°C. […] Following refreshing of KRBH, cells were dispensed in 8 microfuge tubes (2,000 cells/tube) and treated with WCDD301, preclustered Ephrin-A5 Fc, or preclustered Fc in the presence or absence of the competitive inhibitor of EphA4 receptor, rhyncophylline ([60]) (MilliporeSigma, catalog SML2345). In the presence or absence of these effectors, secretion assay was performed sequentially as shown in Supplemental Table 5. […] Preclustering of Ephrin-A5 Fc was done by mixing Ephrin-A5 Fc or Fc alone (BioLegend, catalog 790102) with anti-Fc antibody (Invitrogen, catalog A16086) (1:10 molar ratio) 20 minutes before treatment ([62]). […] Shedding of cleaved EphA4 was measured from the cell culture medium. Experiments were performed by dispersion of 200 islets, and EphA4 levels in media were measured by EphA4 ELISA (ABclonal, catalog RK06572).

[2] = system: murine dispersed islet cells; assay: Insulin secretion from murine dispersed islet cells; format: cell-based, mouse; settings: for Relative secretion of insulin: one value per mouse
Experimental: as §1

[3] = system: human donor dispersed islet cells; assay: Somatostatin secretion from non-diabetic human donor dispersed islet cells; format: cell-based
Experimental: as §1
(§2) The Integrated Islet Distribution Program provided us human donor islets with their characteristics (Supplemental Table 6). Islets were centrifuged at 500g for 3 minutes, resuspended in CMRL 1066 medium (Gibco, catalog 1150-037) containing 11 mM glucose, and rested in an incubator overnight.
(§3) For the hormone secretion assay, islets or dispersed islet cells were adapted in KRBH buffer containing 11 mM glucose for 1 hour. Then, after 2 washes in HBSS containing 11 mM glucose, islets or cells were treated in the following sequential order in the presence or absence of WCDD301: incubation in KRBH (1 mM glucose, 30 minutes) followed by medium collection, incubation in KRBH (11 mM glucose, 30 minutes) followed by medium collection.

[4] = system: isolated islets of donors with T1D; assay: Glucagon secretion from isolated islets of donors with T1D; format: cell-based, human; settings: for Secretion of glucagon: isolated islets, T1D donors, one value per donor, Figure 2G
Experimental: as §2, §3

[5] = system: α cells of NOD mice islets; assay: F-actin signal in α cells of pancreatic slices of NOD mice; format: in vivo, mouse; settings: WCDD301-treated NOD mice; diabetic 47.14 ± 4.70, nondiabetic 79.14 ± 4.63
Experimental: Pancreata of NOD mice (females, n = 3 per group) from nondiabetic, diabetic placebo-treated, and diabetic WCDD301-treated cohorts were excised; fixed in 10% buffered formalin for 5 days; and treated with ethanol 70% for 2 days before paraffin embedding. The paraffin-embedded tissue blocks were longitudinally sectioned in 5 μm slices and fixed on microscope slides. Following deparaffinization (through incubation in graded xylene, graded ethanol, and PBS), permeabilization (using 0.1% Triton X-100 in PBS), and background blocking (using 5% BSA solution containing 0.1% Tween 20), samples were incubated with primary antibodies (mouse anti-glucagon, Abcam, catalog ab10988; above-mentioned rabbit anti-EphA4), secondary antibodies (goat anti-mouse IgG Alexa Fluor 488; Invitrogen, catalog A-11001; goat anti-rabbit IgG Alexa Fluor 633, Invitrogen, catalog A-21070), SPY555-Actin (Cytoskeleton, catalog SC202), and DAPI. Image acquisition and analysis were performed as for dispersed islet cells. […] ROIs were manually drawn around each islet, background signal was removed by thresholding, and intensity of glucagon signal was determined and normalized by the islet surface area. To determine sizes of α cells per islet, ROIs were manually drawn around α cells in each islet. […]

Which results are given for `CC(=O)OCC(N)(COC(C)=O)COC(C)=O` [WCDD301, 2-(acetoxymethyl)-2-aminopropane-1,3-diyl diacetate]?
Blood glucose, IPGTT (Figure 6D) (diabetic NOD mice; 8h after WCDD301 dosing (first group, c4-c6), 0 min): 135 and 151 and 125; Blood glucose, IPGTT (Figure 6D) (diabetic NOD mice; 8h after WCDD301 dosing (first group, c4-c6), 15 min): 160 and 159 and 158; Blood glucose, IPGTT (Figure 6D) (diabetic NOD mice; 8h after WCDD301 dosing (first group, c4-c6), 30 min): 175 and 165 and 162; Blood glucose, IPGTT (Figure 6D) (diabetic NOD mice; 8h after WCDD301 dosing (first group, c4-c6), 45 min): 165 and 175; Blood glucose, IPGTT (Figure 6D) (diabetic NOD mice; 8h after WCDD301 dosing (first group, c4-c6), 60 min): 155 and 145 and 135; Blood glucose, IPGTT (Figure 6D) (diabetic NOD mice; 8h after WCDD301 dosing (first group, c4-c6), 90 min): 150 and 135 and 114; Blood glucose, IPGTT (Figure 6D) (diabetic NOD mice; 8h after WCDD301 dosing (second group, c7-c9), 0 min): 140 and 151 and 137; Blood glucose, IPGTT (Figure 6D) (diabetic NOD mice; 8h after WCDD301 dosing (second group, c7-c9), 15 min): 210 and 206 and 205; Blood glucose, IPGTT (Figure 6D) (diabetic NOD mice; 8h after WCDD301 dosing (second group, c7-c9), 30 min): 340 and 307 and 321; Blood glucose, IPGTT (Figure 6D) (diabetic NOD mice; 8h after WCDD301 dosing (second group, c7-c9), 45 min): 380 and 356 and 372; Blood glucose, IPGTT (Figure 6D) (diabetic NOD mice; 8h after WCDD301 dosing (second group, c7-c9), 60 min): 320 and 395 and 372; Blood glucose, IPGTT (Figure 6D) (diabetic NOD mice; 8h after WCDD301 dosing (second group, c7-c9), 90 min): 295 and 386 and 368; Blood glucose, IPGTT (Figure 6D) (diabetic NOD mice; 8h after WCDD301 dosing (second group, c7-c9), 120 min): 135 and 159 and 148; Blood glucose, IPGTT (Figure 6D) (diabetic NOD mice; 14h after WCDD301 dosing, 0 min): 119 and 140 and 138; Blood glucose, IPGTT (Figure 6D) (diabetic NOD mice; 14h after WCDD301 dosing, 15 min): 520 and 480 and 450; Blood glucose, IPGTT (Figure 6D) (diabetic NOD mice; 14h after WCDD301 dosing, 30 min): 650 and 550; Blood glucose, IPGTT (Figure 6D) (diabetic NOD mice; 14h after WCDD301 dosing, 45 min): 650; Blood glucose, IPGTT (Figure 6D) (diabetic NOD mice; 14h after WCDD301 dosing, 60 min): 650 and 550 and 468; Blood glucose, IPGTT (Figure 6D) (diabetic NOD mice; 14h after WCDD301 dosing, 90 min): 555 and 450 and 350; Blood glucose, IPGTT (Figure 6D) (diabetic NOD mice; 14h after WCDD301 dosing, 120 min): 410 and 325 and 286; Blood glucose, IPGTT (Figure 6D) (diabetic NOD mice; 14h after WCDD301 dosing, 180 min): 158 and 151 and 140; Blood glucose, IPGTT (Figure 6D) (diabetic NOD mice; 24h after WCDD301 dosing, 0 min): 320 and 290 and 325; Blood glucose, IPGTT (Figure 6D) (diabetic NOD mice; 24h after WCDD301 dosing, 15 min): 590 and 480 and 552; Blood glucose, IPGTT (Figure 6D) (diabetic NOD mice; 24h after WCDD301 dosing, 30 min): 650 and 590 and 610; Blood glucose, IPGTT (Figure 6D) (diabetic NOD mice; 24h after WCDD301 dosing, 45 min): 650; Blood glucose, IPGTT (Figure 6D) (diabetic NOD mice; 24h after WCDD301 dosing, 60 min): 590 and 600 and 580; Blood glucose, IPGTT (Figure 6D) (diabetic NOD mice; 24h after WCDD301 dosing, 90 min): 520 and 590 and 570; Blood glucose, IPGTT (Figure 6D) (diabetic NOD mice; 24h after WCDD301 dosing, 120 min): 490 and 520 and 505; Blood glucose, IPGTT (Figure 6D) (diabetic NOD mice; 24h after WCDD301 dosing, 180 min): 510 and 550 and 512; Glucose tolerance (diabetic NOD mice; NOD mice versus placebo-treated diabetic control): Glucose tolerance was improved; Shedding of EphA4 into the cell culture medium [1]: reduced shedding of EphA4 into the cell culture medium; Relative secretion of insulin ([2]; 301 (1.5 µM), Glucose (1 mM), Figure 1G): 0.28 and 0.38 and 0.3 and 0.32 and 0.23; Relative secretion of insulin ([2]; 301 (1.5 µM), Glucose (11 mM), Figure 1G): 1.22 and 1.05 and 0.8 and 0.98 and 1.49; Relative secretion of insulin ([2]; 301 (3 µM), Glucose (1 mM), Figure 1G): 0.49 and 0.38 and 0.4 and 0.28 and 0.53; Relative secretion of insulin ([2]; 301 (3 µM), Glucose (11 mM), Figure 1G): 0.67 and 1.1 and 0.98 and 1.25 and 0.63; Effect on insulin secretion ([2]; Figure 1G): without significant effects; Effect on insulin secretion in presence of rhyncophylline ([2]; WCDD301 3 μM, Supplemental Figure 3): no significant effect on insulin secretion; Effect on somatostatin secretion ([3]; 1, 3 or 6 hours, Supplemental Figure 4A-C): no effect on somatostatin secretion; Somatostatin secretion (Supplemental Figure 4D; quantity not given) ([3]; WCDD301): 1740.7 and 1280.5 and 1500.0; Effect on glucagon secretion ([4]; islets from donors with long-standing T1D): reduced glucagon secretion; Secretion of glucagon ([4]; 1 mM glucose): 39.575 and 41.23; Secretion of glucagon ([4]; 11 mM glucose): 36.8 and 30.22; F-actin signal within α cells [5]: 74.50 ± 4.80 AU
